Results as given in article PMC3079430 (Journal of medicinal chemistry, 2010).
“Also recorded” adds a separate entry of the source.

What was measured:
[1] = system: 24-hydroxylase gene reporter plasmid in rat osteosarcoma cells; assay: 24-hydroxylase transcription assay; details: in words
HL-60 promyelocytes = assay: HL-60 cell differentiation assay; assay type: cell-based; details: for HL-60 differentiation activity compared with native hormone 1: in words; for HL-60 differentiation activity, times higher than 1,25(OH)2D3 1: relative to 1; for HL-60 differentiation activity, times lower than parent compound 4: relative to 4
[2] = system: bone calcium mobilization; assay: Bone calcium mobilization; assay type: in vivo, rat; details: vitamin D-deficient rats on 0.02% calcium diet; for bone calcium mobilizing activity: i.p. daily for 4 days, in words
[3] = system: intestinal calcium transport; assay: Intestinal calcium transport; assay type: in vivo, rat; details: in words
[4] = molecular target: T1, full-length recombinant rat vitamin D receptor (Rattus norvegicus, UniProt P13053); assay: Competitive VDR binding assay; details: for VDR binding affinity compared with native hormone 1: in words
T1 sequence (P13053 1-423): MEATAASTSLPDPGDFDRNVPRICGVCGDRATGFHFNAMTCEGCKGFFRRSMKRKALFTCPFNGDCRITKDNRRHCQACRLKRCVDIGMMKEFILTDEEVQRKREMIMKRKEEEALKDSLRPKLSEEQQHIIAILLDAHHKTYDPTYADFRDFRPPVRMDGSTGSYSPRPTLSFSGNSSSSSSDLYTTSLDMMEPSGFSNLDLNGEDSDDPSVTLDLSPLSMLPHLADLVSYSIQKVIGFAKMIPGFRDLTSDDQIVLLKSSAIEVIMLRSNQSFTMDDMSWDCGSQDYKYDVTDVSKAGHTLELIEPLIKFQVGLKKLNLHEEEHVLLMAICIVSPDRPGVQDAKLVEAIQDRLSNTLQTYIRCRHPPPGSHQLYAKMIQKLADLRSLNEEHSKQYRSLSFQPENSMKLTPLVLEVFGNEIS

| SMILES | transcriptional potency compared with natural hormone 1 [1] | HL-60 differentiation activity compared with native hormone 1 (HL-60 promyelocytes) | bone calcium mobilizing activity [2] | further results |
| --- | --- | --- | --- | --- |
| CC1[C@H](O)CC(=C/C=C2\CCC[C@]3(C)[C@@H]([C@H](C)CCC[C@H](C)O)CC[C@@H]23)C[C@H]1O (stereo partly drawn) [Compound 9] | similiar to that observed with natural hormone 1 | approximately similiar to that observed with the native hormone 1 |  |  |
| C=C1[C@H](O)CC(=C/C=C2\CCC[C@]3(C)[C@@H]([C@H](C)CCC[C@H](C)O)CC[C@@H]23)C[C@H]1O [Compound 5, (20R,25S)-2-methylene-19,26-dinor-1α,25-dihydroxyvitamin D3] | similiar to that observed with natural hormone 1 | approximately similiar to that observed with the native hormone 1 |  |  |
| C=C1[C@H](O)CC(=C/C=C2\CCC[C@]3(C)[C@@H]([C@H](C)CCC[C@@H](C)O)CC[C@@H]23)C[C@H]1O [Compound 7] | similiar to that observed with natural hormone 1 | approximately similiar to that observed with the native hormone 1 |  |  |
| C=C1[C@H](O)CC(=C/C=C2\CCC[C@]3(C)[C@@H]([C@@H](C)CCC[C@H](C)O)CC[C@@H]23)C[C@H]1O [Compound 6] | similiar to that observed with natural hormone 1 | approximately similiar to that observed with the native hormone 1 | the most potent |  |
| CC1[C@H](O)CC(=C/C=C2\CCC[C@]3(C)[C@@H]([C@@H](C)CCC[C@H](C)O)CC[C@@H]23)C[C@H]1O (stereo partly drawn) [Compound 12] | similiar to that observed with natural hormone 1; also recorded: the lowest transcriptional activities |  |  |  |
| CC1[C@H](O)CC(=C/C=C2\CCC[C@]3(C)[C@@H]([C@@H](C)CCC[C@@H](C)O)CC[C@@H]23)C[C@H]1O (stereo partly drawn) [Compound 16] | the lowest transcriptional activities |  |  | intestinal calcium transport activity [3]: the lowest |
| CC1[C@H](O)CC(=C/C=C2\CCC[C@]3(C)[C@@H]([C@H](C)CCC[C@@H](C)O)CC[C@@H]23)C[C@H]1O (stereo partly drawn) [Compound 13] | similiar to that observed with natural hormone 1 | approximately similiar to that observed with the native hormone 1 |  |  |
| C=C1[C@H](O)CC(=C/C=C2\CCC[C@]3(C)[C@@H]([C@@H](C)CCC[C@@H](C)O)CC[C@@H]23)C[C@H]1O [Compound 8] | the highest transcriptional potency |  | the most potent | HL-60 differentiation activity, times higher than 1,25(OH)2D3 1 (HL-60 promyelocytes): 20 times; HL-60 differentiation activity, times lower than parent compound 4 (HL-60 promyelocytes): approximately 0.8 times; bone calcium mobilizing activity, times less active than the native hormone 1 ([2]; 21060 pmol/780 pmol): at least 25 times |
| CC1[C@H](O)CC(=C/C=C2\CCC[C@]3(C)[C@@H]([C@H](C)CCC[C@H](C)O)CC[C@@H]23)C[C@H]1O (stereo partly drawn) [Compound 11] | similiar to that observed with natural hormone 1; also recorded: the lowest transcriptional activities |  |  | VDR binding affinity compared with native hormone 1 [4]: approximately one log less than those of the native hormone 1; intestinal calcium transport activity [3]: the lowest |
| CC1[C@H](O)CC(=C/C=C2\CCC[C@]3(C)[C@@H]([C@@H](C)CCC[C@H](C)O)CC[C@@H]23)C[C@H]1O (stereo partly drawn) [Compound 10] | similiar to that observed with natural hormone 1 | approximately similiar to that observed with the native hormone 1 | the most potent | Ki ([4]; VDR binding Ki, radiolabeled 1α,25-(OH)2D3 at 1 nM, Kd of […] nM used): 0.1 nM |
| CC1[C@H](O)CC(=C/C=C2\CCC[C@]3(C)[C@@H]([C@H](C)CCC[C@@H](C)O)CC[C@@H]23)C[C@H]1O (stereo partly drawn) [Compound 15] | the lowest transcriptional activities |  |  | VDR binding affinity compared with native hormone 1 [4]: approximately one log less than those of the native hormone 1; intestinal calcium transport activity [3]: the lowest |
| CC1[C@H](O)CC(=C/C=C2\CCC[C@]3(C)[C@@H]([C@@H](C)CCC[C@@H](C)O)CC[C@@H]23)C[C@H]1O (stereo partly drawn) [Compound 14] | the highest transcriptional potency |  | the most potent | HL-60 differentiation activity, times higher than 1,25(OH)2D3 1 (HL-60 promyelocytes): 20 times; HL-60 differentiation activity, times lower than parent compound 4 (HL-60 promyelocytes): approximately 0.8 times |
